This is an account of results in publication PMC12627862, “Therapeutic targeting of endothelial calcium signaling accelerates the resolution of lung injury” (Signal Transduction and Targeted Therapy, 2025).

For orientation: logD means lipophilicity at a set pH, counting ionised and neutral species. Read a high logD as a more lipophilic compound. A word on the inhibition: it is the drop in the measured response relative to a control, in per cent. High values mean a response far below the control, low ones a response near the control.

Structures are written as SMILES. Starred links: 1 amine or outer side, 2 acyl side, 3 side chain; linkers in the order of their positions; H or OH if unused. Positions of bridges follow the written chain, without caps; N, C: chain ends. Non-standard residues stand in square brackets, D forms with d. Residues, ends and D or L forms follow the SMILES beside them. ξ: configuration not given here. X5 = O=C([C@@H]1[C@@H]2CCCC[C@@H]2CN1[*:1])[*:2]; X2 = C[C@@](CCCCC=[*:3])(N[*:1])C(=O)[*:2]; Leu(4,5-dehydro) = C=C(C)C[C@H](N)C(=O)O; X4 = C=C(C)C[C@@H](N[*:1])C(=O)[*:2]; d(tBuAla) = CC(C)(C)C[C@@H](N)C(=O)O; dVal(3-OH) = CC(C)(O)[C@@H](N)C(=O)O; Val(3-OH) = CC(C)(O)[C@H](N)C(=O)O; cisHyp = O=C(O)[C@@H]1C[C@H](O)CN1; tBuAla = CC(C)(C)C[C@H](N)C(=O)O; R5 = C=CCCC[C@@](C)(N)C(=O)O; ξP = O=C(O)C1CCCN1

Series [1] is described as follows: Aggregation / solubility at 1 mM. In kind it is physicochemical. The note with it: summary calls it solubility at 1mM. Here is the method:
(§1) The solubilities of the synthesized compounds were determined experimentally (Supplementary Table 2). Most compounds were highly soluble at a 1 mM concentration; however, some compounds tended to form aggregates. These compounds were excluded from further studies. In addition, we experimentally determined the lipophilicity of each compound, logP(oct/wat)=log(soluteoct/solutewat ), which is the partition coefficient of a compound between aqueous (water) and lipophilic (octanol) phases (Supplementary Table 2).

The nature of series [2]: Lipophilicity of peptides, logP(oct/wat). In kind it is physicochemical. Here is the method:
as §1
Lipophilicity of peptides. Two separate solutions were obtained: an aqueous phosphate buffer with saturated n-octanol, and an n-octanol solution with saturated phosphate buffer. Peptides were then dissolved and diluted in the phosphate buffer. Different partitions were then made with different n-octanol to water ratio before shaking for an hour at room temperature. The aqueous phase and n-octanol were allowed to equilibrate, and each phase was extracted and analyzed for peptide concentrations. The ratio of peptide concentration in n-octanol to that in water is expressed as log(P).

Series [3] addresses EB3 interactions with IP3R3-GFP (Homo sapiens, UniProt Q9UPY8). Description: Competitive binding: inhibition of EB3 interaction with IP3R3-GFP in vitro. The settings on record: 250 nM. In kind it is biochemical. From the text: We tested the efficacy of twenty-three compounds in inhibiting EB3 interactions with IP3R3-GFP via an in vitro approach developed by us[12],[13]. […] Guided by NMR studies, we predicted the binding pose of 109 to EB3 via AutoDock Vina[13],[24],[25].

Series [4] has as its system CD1 mice, cecal ligation and puncture. The series is described as follows: Polymicrobial sepsis model (CLP). It is filed as in vivo, mouse. The settings on record: CLP 18-gauge; monotherapy: VT-109 0.5 µmol/kg bw or enrofloxacin 5 mg/kg bw.

Chain of EB3 interactions with IP3R3-GFP (Q9UPY8 whole entry): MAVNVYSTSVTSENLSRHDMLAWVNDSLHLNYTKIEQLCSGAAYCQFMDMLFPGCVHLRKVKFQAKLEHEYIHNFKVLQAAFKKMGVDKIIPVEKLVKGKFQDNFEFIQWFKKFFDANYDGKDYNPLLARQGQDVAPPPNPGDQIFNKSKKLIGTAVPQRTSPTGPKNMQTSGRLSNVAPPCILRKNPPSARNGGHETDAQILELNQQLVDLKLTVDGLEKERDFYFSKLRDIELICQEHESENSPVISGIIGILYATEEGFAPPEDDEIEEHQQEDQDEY

Consider `CC[C@H](C)[C@H](NC(=O)[C@@H](NC(=O)[C@@H]1C[C@H](O)CN1C(=O)[C@H](CC(C)(C)C)NC(=O)[C@H](CCC(=O)O)NC(=O)[C@H](NC(=O)[C@@H](N)Cc1ccccc1)C(C)(C)O)[C@@H](C)O)C(=O)O` [compound 038, (S)-4-((R)-2-((S)-2-amino-3-phenylpropanamido)-3-hydroxy-3-methylbutanamido)-5-(((S)-1-((2S,4S)-2-(((2S,3R)-1-(((1S,2S)-1-carboxy-2-methylbutyl)amino)-3-hydroxy-1-oxobutan-2-yl)carbamoyl)-4-hydroxypyrrolidin-1-yl)-4,4-dimethyl-1-oxopentan-2-yl)amino)-5-oxopentanoic acid] (H-F[dVal(3-OH)]E[tBuAla][cisHyp]TI-OH), for which, in series [1], the “Aggregation at 1mM” value was 0.35. Besides, the logD in series [2] was -0.19. The same molecule gave an inhibition at 0.25 µM in series [3] of 36%.
For `C=C(C)C[C@H](NC(=O)[C@H](CCC(=O)O)NC(=O)[C@H](NC(=O)[C@H](N)Cc1ccccc1)C(C)(C)O)C(=O)N1CCC[C@H]1C(=O)N[C@H](C(=O)N[C@H](C(=O)O)[C@@H](C)CC)[C@@H](C)O` [compound 036, (S)-4-((R)-2-((R)-2-amino-3-phenylpropanamido)-3-hydroxy-3-methylbutanamido)-5-(((S)-1-((S)-2-(((2S,3R)-1-(((1S,2S)-1-carboxy-2-methylbutyl)amino)-3-hydroxy-1-oxobutan-2-yl)carbamoyl)pyrrolidin-1-yl)-4-methyl-1-oxopent-4-en-2-yl)amino)-5-oxopentanoic acid] (H-[dF][dVal(3-OH)]E[Leu(4,5-dehydro)]PTI-OH), the “Aggregation at 1mM” value in series [1] is given as “weak signal”. In addition, the logD in series [2] is -0.89. The molecule further showed an inhibition at 0.25 µM in series [3] of 40%.
On to `CC[C@H](C)[C@H](NC(=O)[C@@H](NC(=O)[C@@H]1CCCN1C(=O)[C@H](CC(C)(C)C)NC(=O)[C@@H](CCC(=O)O)NC(=O)[C@@H](NC(=O)[C@@H](N)Cc1ccccc1)C(C)(C)O)[C@@H](C)O)C(=O)O` [compound 016, (R)-4-((S)-2-((S)-2-amino-3-phenylpropanamido)-3-hydroxy-3-methylbutanamido)-5-(((S)-1-((S)-2-(((2S,3R)-1-(((1S,2S)-1-carboxy-2-methylbutyl)amino)-3-hydroxy-1-oxobutan-2-yl)carbamoyl)pyrrolidin-1-yl)-4,4-dimethyl-1-oxopentan-2-yl)amino)-5-oxopentanoic acid] (H-F[Val(3-OH)][dE][tBuAla]PTI-OH), for which, in series [1], the “Aggregation at 1mM” value came to 0.18. The logD in series [2] was -0.3. Also, in series [3], 0.25 µM produced 48% inhibition.
Take `CC[C@H](C)[C@@H]1NC(=O)[C@H]([C@@H](C)O)NC(=O)[C@@H]2CCCN2C(=O)[C@H]([C@@H](C)CC)NC(=O)[C@H](CCC(=O)O)NC(=O)[C@H]([C@@H](C)O)NC(=O)[C@H](Cc2ccccc2)NC1=O` [compound 012, 3-((3S,6S,9S,12S,15S,18S,23aS)-9-benzyl-6,18-di((S)-sec-butyl)-3,12-bis((R)-1-hydroxyethyl)-1,4,7,10,13,16,19-heptaoxodocosahydro-1H-pyrrolo[1,2-a][1,4,7,10,13,16,19]heptaazacyclohenicosin-15-yl)propanoic acid.] (cyclo(EIPTIFT)): the logD in series [2] is -0.04. In addition, in series [3], the inhibition at 0.25 µM was found to be 49%.
Consider `C=C(C)C[C@H](NC(=O)[C@H](CCC(=O)O)NC(=O)[C@@H](NC(=O)[C@@H](N)Cc1ccccc1)[C@@H](C)O)C(=O)N1CCC[C@H]1C(=O)N[C@H](C(=O)N[C@H](C(=O)O)[C@@H](C)CC)[C@@H](C)O` [compound 019, (S)-4-((2S,3R)-2-((S)-2-amino-3-phenylpropanamido)-3-hydroxybutanamido)-5-(((S)-1-((S)-2-(((2S,3R)-1-(((1S,2S)-1-carboxy-2-methylbutyl)amino)-3-hydroxy-1-oxobutan-2-yl)carbamoyl)pyrrolidin-1-yl)-4-methyl-1-oxopent-4-en-2-yl)amino)-5-oxopentanoic acid] (H-FTE[Leu(4,5-dehydro)]PTI-OH), for which, in series [1], the “Aggregation at 1mM” value was “weak signal”. Moreover, the logD in series [2] is -1. In addition, testing at 0.25 µM in series [3] gave an inhibition of 51%.
`CC[C@H](C)[C@H](NC(=O)[C@H](NC(=O)[C@@H]1[C@@H]2CCCC[C@@H]2CN1C(=O)[C@H](CC(C)(C)C)NC(=O)[C@H](CCC(=O)O)NC(=O)[C@H](NC(=O)[C@@H](N)Cc1ccccc1)C(C)(C)O)C(C)(C)O)C(=O)O` [compound 040, (S)-4-((R)-2-((S)-2-amino-3-phenylpropanamido)-3-hydroxy-3-methylbutanamido)-5-(((S)-1-((1S,3aS,7aR)-1-(((R)-1-(((1S,2S)-1-carboxy-2-methylbutyl)amino)-3-hydroxy-3-methyl-1-oxobutan-2-yl)carbamoyl)octahydro-2H-isoindol-2-yl)-4,4-dimethyl-1-oxopentan-2-yl)amino)-5-oxopentanoic acid.] (H-F[dVal(3-OH)]E[tBuAla][X5][dVal(3-OH)]I-OH) registered a logD in series [2] of 0.67. The same molecule came in with an inhibition at 0.25 µM in series [3] of 50%.
In the case of `CC[C@H](C)[C@H](NC(=O)CC(O)CNC(=O)[C@@H]1[C@@H]2CCCC[C@@H]2CN1C(=O)[C@H](CC(C)(C)C)NC(=O)c1cccc(CNC(=O)[C@H](NC(=O)[C@@H](N)Cc2ccccc2)C(C)(C)O)c1)C(=O)O` (stereo partly drawn) [compound 041, (4-((1S,3aS,7aR)-2-((S)-2-(3-(((R)-2-((S)-2-amino-3-phenylpropanamido)-3-hydroxy-3-methylbutanamido)methyl)benzamido)-4,4-dimethylpentanoyl)octahydro-1H-isoindole-1-carboxamido)-3-hydroxybutanoyl)-L-isoleucine], the “Aggregation at 1mM” value in series [1] amounted to 0.18. In addition, the logD in series [2] was 0.71. Moreover, the inhibition at 0.25 µM in series [3] worked out at 30%.
As to `CCN1CCN(c2cc3c(cc2F)c(=O)c(C(=O)O)cn3C2CC2)CC1` [enrofloxacin, reference compound], the survival entry in series [4] was “neither antibiotics nor VT-109 monotherapy (0.5 µmol/kg bw) significantly improved survival”.
Regarding `CC[C@H](C)[C@@H]1NC(=O)[C@H]([C@@H](C)O)NC(=O)[C@@H]2CCCN2C(=O)[C@H]([C@@H](C)CC)NC(=O)[C@H](CCC(=O)O)NC(=O)[C@H]([C@@H](C)O)NC(=O)[C@H](Cc2ccccc2)NC(=O)CNC(=O)CNC(=O)[C@H]([C@@H](C)O)NC(=O)CC[C@@H](C(=O)O)NC(=O)[C@@H]2CCCN2C(=O)[C@H](CC(C)C)NC1=O` [compound 013, (6S,9S,12S,15S,24S,29S,31aS,37S,40S,43S,45aS)-15-benzyl-6,40-di((S)-sec-butyl)-9-(2-carboxyethyl)-12,24,43-tris((R)-1-hydroxyethyl)-37-isobutyl-5,8,11,14,17,20,23,26,31,36,39,42,45-tridecaoxotetratetracontahydro-5H-dipyrrolo[2,1-c:2',1'-o][1,4,7,10,13,16,19,22,25,28,31,34,37]tridecaazacyclohentetracontine-29-carboxylic acid] (TGGFTEIPTILPE-OH; lactam N-13), in series [2], the logD is -0.27. At 0.25 µM the inhibition in series [3] was 51%.
`CC[C@@H](C)[C@H]1NC(=O)[C@H]([C@@H](C)O)NC(=O)C2CCCN2C(=O)[C@@H](CC(C)(C)C)NC(=O)[C@](C)(NC(=O)[C@@H](CCC(=O)O)NC(=O)[C@H](NC(=O)[C@H](N)Cc2ccccc2)[C@H](C)O)CCC/C=C\CCCC[C@@](C)(C(=O)N[C@@H](CCCNC(=N)N)C(=O)O)NC1=O` (stereo partly drawn) [compound 028, (4R)-4-((2R,3S)-2-((R)-2-amino-3-phenylpropanamido)-3-hydroxybutanamido)-5-(((3S,6R,9S,19R,22R,Z)-6-((R)-sec-butyl)-9-(((S)-1-carboxy-4-guanidinobutyl)carbamoyl)-3-((R)-1-hydroxyethyl)-9,19-dimethyl-22-neopentyl-1,4,7,20,23-pentaoxo-2,3,4,5,6,7,8,9,10,11,12,13,16,17,18,19,20,21,22,23,25,26,27,27a-tetracosahydro-1H-pyrrolo[1,2-d][1,4,7,10,13]pentaazacyclopentacosin-19-yl)amino)-5-oxopentanoic acid] (H-[dF][dT][dE][R5][d(tBuAla)][ξP]T[dI][X2]R-OH; staple (Z) 4-9): the “Aggregation at 1mM” value in series [1] is 1.39. Besides, in series [2], the logD is -1. The inhibition at 0.25 µM in series [3] worked out at 45%.
Take `C=C(C)C[C@H](NC(=O)[C@@H](NC(=O)[C@@H]1CCCN1C(=O)[C@@H](CC(=C)C)NC(=O)[C@H](CCC(=O)O)NC(=O)[C@H](NC(=O)[C@H](N)Cc1ccccc1)C(C)(C)O)[C@@H](C)O)C(=O)O` [compound 049, (S)-2-((2S,3R)-2-((S)-1-((R)-2-((S)-2-((R)-2-((R)-2-amino-3-phenylpropanamido)-3-hydroxy-3-methylbutanamido)-4-carboxybutanamido)-4-methylpent-4-enoyl)pyrrolidine-2-carboxamido)-3-hydroxybutanamido)-4-methylpent-4-enoic acid.] (H-[dF][dVal(3-OH)]E[X4]PT[Leu(4,5-dehydro)]-OH): in series [2], the logD was -0.71. In series [3], this molecule displayed an inhibition at 0.25 µM of 52%.
